Measured values published in patent publication US20220125882A1, “METHODS AND COMPOSITIONS FOR TREATMENT OF CANCER” (Enzychem Lifesciences Corporation, priority 2019, published 2022).
“And” between values parts separate entries of the source, which are not always exact repeats. Equal values may be shown once. “Also recorded” adds a separate entry of the source.

B1: G-CSF: granulocyte colony-stimulating factor used with neutrophils to co-stimulate MDA-MB-231 cells; form not specified (protein, UniProt P09919 31-207, looked up)
Granulocyte …: TPLGPASSLPQSFLLKCLEQVRKIQGDGAALQEKLVSECATYKLCHPEELVLLGHSLGIPWAPLSSCPSQALQLAGCLSQLHSGLFLYQGLLQALEGISPELGPTLDTLQLDVADFATTIWQQMEELGMAPALQPTQGAMPAFASAFQRRAGGVLVASHLQSFLEVSYRVLRHLAQP
B2: PEG-G-CSF: pegfilgrastim, a PEGylated form of filgrastim (recombinant human G-CSF) (protein, UniProt P09919 31-207, looked up)
Granulocyte …: B1 Granulocyte …
modifications: PEG, N-terminal methionine

Assays:
SMAD2/3 = experiment: Confocal immunofluorescence of Smad nucleus translocation in MDA-MB-231; format: cell-based; conditions: TAN and G-CSF co-stimulation
Protocol: (§1) MDA-MB-231 and HL60 cells were obtained from the American Type Culture Collection (ATCC, Rockville, Md., USA). MDA-MB-231 cells were grown in DMEM medium (WELGENE, Seoul, Korea) containing 10% fetal bovine serum (HyClone, Waltham, Mass., USA), 1% antibiotics (100 mg/l streptomycin, 100 U/ml penicillin), and 0.4% 2-Mercaptoethanol (Sigma Aldrich, St. Louis, Mo., USA). HL60 cells were grown in DMEM medium containing 10% fetal bovine serum and 1% antibiotics (100 mg/l streptomycin, 100 U/ml penicillin). Cells were grown at 37° C. in a 5% CO2 atmosphere. To differentiate HL60 cells into neutrophil-like cells, cells were grown in medium with […] (Sigma Aldrich) for 5 days.
MDA-MB-231 cells were seeded in 12 well plate with cover glass, and incubated to 60% confluence at well. After the incubation, treated PLAG and neutrophil and G-CSF co-stimulation for indicate time. After treatment the indicated time at 37° C. in a 5% CO2 atmosphere, the cells were fixed with 3.7% formaldehyde for 20 min and permeabilized with 0.2% Triton X-100 for 20 min for staining. Cells were washed with PBST twice and reacted with specific antibody (SMAD2/3) for over-night at 4° C. Cells were washed with PBST twice and reacted secondary antibody. For nucleus detection, it stained with 1% Hoechst33342 for 20 min. Fluorescence was detected by confocal (Carl Zeiss, Thornwood, N.Y., USA).

Smad proteins = experiment: Smad protein activity by Western blotting in MDA-MB-231; format: cell-based; conditions: TAN and G-CSF co-stimulation
Protocol: as §1
(§2) MDA-MB-231 cells treated with PLAG and stimulated to induce neutrophil and G-CSF co-stimulation for various times at 37° C. in a 5% CO2 atmosphere were lysed using ice-cold IP lysis buffer (25 mM Tris-HCl pH 7.4, 150 mM NaCl, 1% NP-40, 1 mM EDTA, 5% glycerol). Extracted proteins were incubated with Surebeads Protein G specific antibody bound magnetic beads (Bio-Rad, Hercules, Calif., USA). Beads were washed with PBS with Tween 20 (PBST) and target proteins eluted in 1× sample buffer and analyzed by Western blotting.

N-cadherin = experiment: PCR of EMT marker expression in MDA-MB-231: N-cadherin; format: cell-based; conditions: for N-cadherin PCR band intensity (relative intensity): MDA-MB-231, Neutrophil co-culture, relative to None = 1, Samples 1-3; for expression level of NCAD: neutrophil and G-CSF co-stimulation group, with or without PLAG
Protocol: as §1
(§3) Total RNA was extracted using RiboEx (GeneAll biotechnology, Seoul, Korea) according to the manufacturer's instructions, and cDNA was generated using ReverseAids cDNA synthesis kit (Thermo Scientific, Waltham, Mass., USA) according to the manufacturer's instructions. PCR was performed with the following temperature profile: a pre-denaturation step of 10 min at 95° C., followed by 35 cycles of 95° C. for 30 sec, annealing temperature for 30 sec and 72° C. for 30 sec and a final exposure to 72° C. for 10 min. Specific primer sequence for amplification was Table 5.

[1] = system: MDA-MB-231 breast cancer cells; experiment: Wound healing assay (mobility), TAN / G-CSF co-culture; format: cell-based; conditions: for mobility of the cancer cells: G-CSF and neutrophil co-stimulation group, with or without PLAG
Protocol: as §1
MDA-MB-231 were seeded in 12 well plate with cover glass, and incubated to 100% confluence at well. After the incubation, make the wound cell monolayer on center of well. A treated PLAG and neutrophil and G-CSF co-stimulation for indicate time. After treatment the indicated time and dose at 37° C. in a 5% CO2 atmosphere, the cells were fixed with 3.7% formaldehyde for 20 min and permeabilized with 0.2% Triton X-100 for 20 min and stained with 0.1% Phalloidin-FITC for 40 min. Fluorescence was detected by confocal (Carl Zeiss, Thornwood, N.Y., USA).

[2] = system: MDA-MB-231 breast cancer cells; experiment: Transwell invasion assay (MTT readout); format: cell-based; conditions: for transwell invasion of the cancer cells: G-CSF and neutrophil co-stimulation group, with or without PLAG; for Invasive cell count (MTT assay, % transform): MDA-MB-231, Samples 1-3
Protocol: as §1
Quantitative macrophage chemoattraction assays were performed using a modified Boyden chamber (SPL lifescience, Seoul, Korea) with 8.0-μm pore polycarbonate membrane inserts with matrigel-coated in 24-well plates. The lower chamber was filled with apoptotic neutrophils for chemoattraction. The MDA-MB-231 cells (5×10^4 cells/ml) in serum-free medium were added into the upper chamber and treated with PLAG. The cells were allowed to chemoattraction (Neutrophil co-culture supernatant) for indicate times at 37° C. in a 5% CO2 atmosphere. The non-chemoattracted cells were removed from the upper surface of the membrane by scraping with a cotton swab, and the chemoattracted cells were calculate by MTT assay.

Vimentin = experiment: PCR of EMT marker expression in MDA-MB-231: Vimentin; format: cell-based; conditions: for Vimentin PCR band intensity (relative intensity): MDA-MB-231, Neutrophil co-culture, relative to None = 1, Samples 1-3; for expression level of Vimentin: neutrophil and G-CSF co-stimulation group, with or without PLAG
Protocol: as §1, §3

IFN-γ = IFN-γ ELISA of cell supernatants; format: cell-based; conditions: for IFN-γ ELISA (450 nm OD): Samples 1-3; for secretion of IFN-γ: TAN environment, PLAG treatment, or G-CSF co-stimulation vs neutrophil only group
Protocol: as §1
(§4) The levels of cytokine secretion in the cell supernatants or plasma were analyzed using an enzyme-linked immunosorbent assay (ELISA) specifically for cytokines from BD Bioscience according to the manufacturer's protocol. The absorbance was measured at 450 nm using an EMax Endpoint ELISA microplate reader (Molecular Devices Corporation, Sunnyvale, Calif., USA).

Snail = experiment: PCR of EMT marker expression in MDA-MB-231: Snail; format: cell-based; conditions: for Snail PCR band intensity (relative intensity): MDA-MB-231, Neutrophil co-culture, relative to None = 1, Samples 1-3; for expression level of SNAIL: neutrophil and G-CSF co-stimulation group, with or without PLAG
Protocol: as §1, §3

SMAD2/3-SMAD4 complex = experiment: Immunoprecipitation of Smad complex in MDA-MB-231; format: cell-based; conditions: TAN and G-CSF co-stimulation
Protocol: as §1, §2

TGF-β = TGF-β ELISA of cell supernatants; format: cell-based; conditions: for TGF-β ELISA (450 nm OD): Samples 1-3; for secretion level of TGF-β: TAN and G-CSF costimulation environment, with or without PLAG
Protocol: as §1, §4

4T1 cell line = experiment: 4T1 tumor-bearing mouse model: tumor size and weight on Day 8; format: in vivo, BALB/c mice; conditions: for % weight Increase: % increase (+) or decrease (−) of tumor weight over body weight compared to control; for Tumor Weight Increase: change of average tumor weight compared to control; for Tumor Weight Average / % weight Average: group average; for Tumor Weight No. 1 / % weight No. 1: individual mouse No. 1; for Tumor Weight No. 1: 4T1 tumor-bearing BALB/c mice; for Tumor Weight No. 2 / % weight No. 2: individual mouse No. 2; for Tumor Weight No. 3 / % weight No. 3: individual mouse No. 3; for Tumor Weight No. 4 / % weight No. 4: individual mouse No. 4; for Tumor Weight No. 5 / % weight No. 5: individual mouse No. 5; for % weight Average / % weight No. 1 / % weight No. 2 / % weight No. 3 / % weight No. 4 / % weight No. 5: tumor weight over body weight
Protocol: On Day 2 and Day 3, the mice were administered 10 mg/kg of gemcitabine twice. On Day 4, 3 μg/mouse of PEG-G-CSF (Pegfilgrastim) was administrated via subcutaneous injection to the mice once. On every day of the study, 50 mg/kg of EC-18 diluted with PBS was administrated orally to the mice. A total of 24 tumor-bearing mice were classified into 5 groups consisting of control group (4 mice, Control), G-CSF administration group (5 mice, PEG-G-CSF), gemcitabine administration group (5 mice, Gemcitabine), G-CSF and gemcitabine co-administration group (5 mice, Gem+PEG), and EC-18 co-administration group (5 mice, Gem+PEG+EC-18), as summarized in Table 1 and FIG. 1A.
On Day 8, all mice were sacrificed and their tumors removed. The size and weight of the tumors were measured.

Row | Molecule | N-cadherin PCR band intensity (relative intensity) (N-cadherin) | expression level of NCAD (N-cadherin) | mobility of the cancer cells [1] | transwell invasion of the cancer cells [2] | Invasive cell count (MTT assay, % transform) ([2]; Neutrophil co-culture) | Vimentin PCR band intensity (relative intensity) (Vimentin) | expression level of Vimentin (Vimentin) | IFN-γ ELISA (450 nm OD) (IFN-γ; Neutrophil co-culture) | secretion of IFN-γ (IFN-γ) | Snail PCR band intensity (relative intensity) (Snail) | expression level of SNAIL (Snail) | TGF-β ELISA (450 nm OD) (TGF-β; Neutrophil co-culture) | secretion level of TGF-β (TGF-β) | % weight Increase (4T1 cell line) | Tumor Weight Increase (4T1 cell line; Day 8) | Tumor Weight Average (4T1 cell line; Day 8) [×0.01 g] | Tumor Weight No. 1 (4T1 cell line; Day 8) [×0.01 g] | Tumor Weight No. 2 (4T1 cell line; Day 8) [×0.01 g] | Tumor Weight No. 3 (4T1 cell line; Day 8) [×0.01 g] | Tumor Weight No. 4 (4T1 cell line; Day 8) [×0.01 g] | also measured
1 | CCCCC/C=C\C/C=C\CCCCCCCC(=O)OC(COC(C)=O)COC(=O)CCCCCCCCCCCCCCC (stereo not shown) [PLAG, 1-palmitoyl-2-linoleoyl-3-acetylglycerol] | 0.723 and 0.747 and 0.732 | expression was decreased | inhibited the cancer cell abnormal-metastasis | inhibited the cancer cell abnormal-metastasis | 212.500% and 235.417% and 216.667% | 0.501 and 0.512 and 0.504 | expression was decreased | 0.181 OD and 0.158 OD and 0.164 OD | significantly increased | 0.531 and 0.749 and 0.527 | expression was decreased | 0.484 OD and 0.476 OD and 0.474 OD | did not significantly decrease; also recorded: did not change |  |  |  |  |  |  |  | nucleus translocation of SMAD2/3 and SMAD4 (SMAD2/3): decreased; SMAD activity (TGF-β signal pathway) (Smad proteins): decreased; mobility of MDA-MB-231 cells ([1]; neutrophil-stimulated): mobility decreased; Invasive cell count (MTT assay, % transform) ([2]; without neutrophil): 89.583% and 104.167% and 102.083%; transwell invasion of MDA-MB-231 cells ([2]; neutrophil-stimulated culture sup.): invasion of cancer cells is decreased; IFN-γ ELISA (450 nm OD) (IFN-γ; without neutrophil): 0.144 OD and 0.149 OD and 0.156 OD; formation of the SMAD2/3-SMAD4 complex (SMAD2/3-SMAD4 complex): decreases; TGF-β ELISA (450 nm OD) (TGF-β; without neutrophil): 0.248 OD and 0.287 OD and 0.208 OD
2 | Nc1ccn([C@@H]2O[C@H](CO)[C@@H](O)C2(F)F)c(=O)n1 [Gemcitabine, gemcitabine, reference compound] |  |  |  |  |  |  |  |  |  |  |  |  |  | −22.6% | −25.0% | 24 ± 12 | 38 | 9 | 32 | 27 | tumor weight decreased compared to control (4T1 cell line; Day 8): about 25%; Tumor Weight No. 5 (4T1 cell line; Day 8): 14 ×0.01 g; % weight Average (4T1 cell line; Day 8): 0.97 ± 0.51%; % weight No. 1 (4T1 cell line; Day 8): 1.55%; % weight No. 2 (4T1 cell line; Day 8): 0.36%; % weight No. 3 (4T1 cell line; Day 8): 1.32%; % weight No. 4 (4T1 cell line; Day 8): 1.08%; % weight No. 5 (4T1 cell line; Day 8): 0.54%
3 | B1 | 4.517 and 4.511 and 5.214 | increased | further increased | further increased | 366.667% and 352.083% and 383.333% | 1.832 and 1.854 and 1.867 | increased | 0.139 OD and 0.102 OD and 0.094 OD | significantly lower | 2.4 and 2.781 and 1.635 | increased | 0.439 OD and 0.446 OD and 0.414 OD | increased |  |  |  |  |  |  |  | 
4 | B2 |  |  |  |  |  |  |  |  |  |  |  |  |  | +22.7% | +19.4% | 38 ± 11 | 47 | 30 | 53 | 30 | tumor weight increased compared to control (4T1 cell line; Day 8): about 19.4%; Tumor Weight No. 5 (4T1 cell line; Day 8): 31 ×0.01 g; % weight Average (4T1 cell line; Day 8): 1.54 ± 0.52%; % weight No. 1 (4T1 cell line; Day 8): 2.02%; % weight No. 2 (4T1 cell line; Day 8): 1.12%; % weight No. 3 (4T1 cell line; Day 8): 2.20%; % weight No. 4 (4T1 cell line; Day 8): 1.20%; % weight No. 5 (4T1 cell line; Day 8): 1.17%
